Measured values from PubChem BioAssay AID180 (DTP/NCI, 2004).
Several values for one entry are separate records, joined by “and”; a condition that tells them apart may be missing. Equal values may be shown once.

Tested on: BDF1 mice, Adenocarcinoma 755 s.c., tumor weight T/C
Test: NCI In Vivo Anticancer Drug Screen. Data for tumor model Adenocarcinoma 755 (subcutaneous) in B6D2F1 (BDF1) mice
Conditions: endpoint: mean tumor weight, higher = larger tumour
Method: The antitumor activity of compounds was measured in mice bearing transplantable tumors. Survival or tumor size were measured and the results are expressed as the measurement made in the treated group (T) divided by the measurement made in the vehicle treated control group (C). The tumor model used in this assay is Adenocarcinoma 755 (subcutaneous) in B6D2F1 (BDF1) mice

[1] = dose: 62.5 mg/kg/injection, schedule: Q01DX011 (ip), vehicle: methylcellulose (MC)
[2] = dose: 6.25 mg/kg/injection, schedule: Q01DX011 (ip), vehicle: methylcellulose (MC)
[3] = dose: 12.5 mg/kg/injection, schedule: Q01DX011 (ip), vehicle: methylcellulose (MC)

SMILES: C[C@]12C=CC(=O)C=C1CC[C@@H]1[C@@H]2[C@@H](O)C[C@@]2(C)[C@H]1CC[C@]2(O)C(=O)COC(=O)CCC1CCCC1
- T/C (dose: 3.1 mg/kg/injection, schedule: Q01DX011 (sc), vehicle: steriod suspending solution): 64 % of control
- T/C (dose: 6.25 mg/kg/injection, schedule: Q01DX011 (sc), vehicle: steriod suspending solution): 43 % of control
- T/C (dose: 6.25 mg/kg/injection, schedule: Q01DX011 (sc), vehicle: water): 47 % of control
- T/C (dose: 12.5 mg/kg/injection, schedule: Q01DX011 (sc), vehicle: steriod suspending solution): 34 % of control
- T/C (dose: 12.5 mg/kg/injection, schedule: Q01DX011 (sc), vehicle: water): 32 % of control
- T/C (dose: 25.0 mg/kg/injection, schedule: Q01DX011 (sc), vehicle: steriod suspending solution): 22 % of control
- T/C (dose: 25.0 mg/kg/injection, schedule: Q01DX011 (sc), vehicle: water): 12 % of control
- T/C (dose: 50.0 mg/kg/injection, schedule: Q01DX011 (sc), vehicle: steriod suspending solution): 13 % of control

SMILES: NC(=O)CCl
- T/C (dose: 25.0 mg/kg/injection, schedule: Q01DX011 (ip), vehicle: other): 91 % of control
- T/C (dose: 50.0 mg/kg/injection, schedule: Q01DX011 (ip), vehicle: other): 64 % of control

SMILES: COc1cc(C=O)cc(O)c1O
- T/C [1]: 72 % of control
- T/C (dose: 125.0 mg/kg/injection, schedule: Q01DX011 (ip), vehicle: methylcellulose (MC)): 58 % of control
- T/C (dose: 250.0 mg/kg/injection, schedule: Q01DX011 (ip), vehicle: methylcellulose (MC)): 40 % of control

SMILES: Clc1cccc(CSc2ncnc3nc[nH]c23)c1
- T/C (dose: 3.9 mg/kg/injection, schedule: Q01DX011 (ip), vehicle: methylcellulose (MC)): 56 % of control
- T/C (dose: 7.8 mg/kg/injection, schedule: Q01DX011 (ip), vehicle: methylcellulose (MC)): 57 % of control
- T/C (dose: 15.6 mg/kg/injection, schedule: Q01DX011 (ip), vehicle: methylcellulose (MC)): 20 % of control
- T/C (dose: 31.25 mg/kg/injection, schedule: Q01DX011 (ip), vehicle: methylcellulose (MC)): 3 % of control and 7 % of control
- T/C [1]: 5 % of control

SMILES: CCN(CC)Cc1nc2c(c(=O)n(C)c(=O)n2C)n1C
- T/C (dose: 30.0 mg/kg/injection, schedule: Q01DX011 (ip), vehicle: methylcellulose (MC)): 93 % of control
- T/C (dose: 60.0 mg/kg/injection, schedule: Q01DX011 (ip), vehicle: methylcellulose (MC)): 54 % of control
- T/C (dose: 120.0 mg/kg/injection, schedule: Q01DX011 (ip), vehicle: methylcellulose (MC)): 40 % of control

SMILES: CCn1cnc2c(SC)nc(N)nc21
- T/C [2]: 74 % of control
- T/C [3]: 30 % of control
- T/C (dose: 25.0 mg/kg/injection, schedule: Q01DX011 (ip), vehicle: methylcellulose (MC)): 31 % of control
- T/C (dose: 50.0 mg/kg/injection, schedule: Q01DX011 (ip), vehicle: methylcellulose (MC)): 7 % of control
- T/C (dose: 100.0 mg/kg/injection, schedule: Q01DX011 (ip), vehicle: methylcellulose (MC)): 1 % of control

SMILES: COS(C)(=O)=O
- T/C (dose: 25.0 mg/kg/injection, schedule: Q01DX011 (ip), vehicle: carboxymethylcellulose (CMC)): 113 % of control
- T/C (dose: 50.0 mg/kg/injection, schedule: Q01DX011 (ip), vehicle: carboxymethylcellulose (CMC)): 88 % of control

SMILES: O=C(O)CCCc1ccc(N(CCCl)CCCl)cc1
- T/C (dose: 0.5 mg/kg/injection, schedule: Q01DX011 (ip), vehicle: carboxymethylcellulose (CMC)): 93 % of control
- T/C (dose: 1.0 mg/kg/injection, schedule: Q01DX011 (ip), vehicle: carboxymethylcellulose (CMC)): 43 % of control
- T/C (dose: 1.25 mg/kg/injection, schedule: Q01DX011 (ip), vehicle: methylcellulose (MC)): 31 % of control
- T/C (dose: 1.81 mg/kg/injection, schedule: Q01DX011 (ip), vehicle: carboxymethylcellulose (CMC)): 60 % of control
- T/C (dose: 1.94 mg/kg/injection, schedule: Q01DX011 (ip), vehicle: carboxymethylcellulose (CMC)): 38 % of control
- T/C (dose: 2.0 mg/kg/injection, schedule: Q01DX011 (ip), vehicle: saline): 99 % of control
- T/C (dose: 2.5 mg/kg/injection, schedule: Q01DX011 (ip), vehicle: methylcellulose (MC)): 89 % of control
- T/C (dose: 3.63 mg/kg/injection, schedule: Q01DX011 (ip), vehicle: carboxymethylcellulose (CMC)): 34 % of control
- T/C (dose: 3.88 mg/kg/injection, schedule: Q01DX011 (ip), vehicle: carboxymethylcellulose (CMC)): 37 % of control
- T/C (dose: 4.0 mg/kg/injection, schedule: Q01DX011 (ip), vehicle: saline): 49 % of control
- T/C (dose: 5.0 mg/kg/injection, schedule: Q01DX011 (ip), vehicle: methylcellulose (MC)): 33 % of control
- T/C (dose: 5.8 mg/kg/injection, schedule: Q01DX011 (ip), vehicle: carboxymethylcellulose (CMC)): 41 % of control
- T/C (dose: 6.2 mg/kg/injection, schedule: Q01DX011 (ip), vehicle: carboxymethylcellulose (CMC)): 75 % of control
- T/C [2]: 26 % of control
- T/C (dose: 7.25 mg/kg/injection, schedule: Q01DX011 (ip), vehicle: carboxymethylcellulose (CMC)): 30 % of control and 48 % of control
- T/C (dose: 7.75 mg/kg/injection, schedule: Q01DX011 (ip), vehicle: carboxymethylcellulose (CMC)): 16 % of control and 29 % of control
- T/C (dose: 8.0 mg/kg/injection, schedule: Q01DX011 (ip), vehicle: saline): 37 % of control
- T/C (dose: 9.66 mg/kg/injection, schedule: Q01DX011 (ip), vehicle: carboxymethylcellulose (CMC)): 9 % of control
- T/C (dose: 10.0 mg/kg/injection, schedule: Q01DX011 (ip), vehicle: methylcellulose (MC)): 10 % of control
- T/C (dose: 10.33 mg/kg/injection, schedule: Q01DX011 (ip), vehicle: carboxymethylcellulose (CMC)): 14 % of control
- T/C [3]: 5 % of control
- T/C (dose: 14.5 mg/kg/injection, schedule: Q01DX011 (ip), vehicle: carboxymethylcellulose (CMC)): 2 % of control and 6 % of control
- T/C (dose: 15.5 mg/kg/injection, schedule: Q01DX011 (ip), vehicle: carboxymethylcellulose (CMC)): 4 % of control
- T/C (dose: 1812.0 micrograms/kg/injection, schedule: Q01DX011 (ip), vehicle: carboxymethylcellulose (CMC)): 118 % of control
- T/C (dose: 3625.0 micrograms/kg/injection, schedule: Q01DX011 (ip), vehicle: carboxymethylcellulose (CMC)): 58 % of control
- T/C (dose: 7250.0 micrograms/kg/injection, schedule: Q01DX011 (ip), vehicle: carboxymethylcellulose (CMC)): 59 % of control

SMILES: Clc1ncc2[nH]c(Cl)nc2n1
- T/C (dose: 30.0 mg/kg/injection, schedule: Q01DX011 (ip), vehicle: carboxymethylcellulose (CMC)): 96 % of control
- T/C (dose: 60.0 mg/kg/injection, schedule: Q01DX011 (ip), vehicle: carboxymethylcellulose (CMC)): 112 % of control

SMILES: C=CCc1c[nH]c(=O)[nH]c1=O
- T/C (dose: 67.5 mg/kg/injection, schedule: Q01DX011 (ip), vehicle: saline): 99 % of control
- T/C (dose: 125.0 mg/kg/injection, schedule: Q01DX011 (ip), vehicle: saline): 78 % of control
- T/C (dose: 250.0 mg/kg/injection, schedule: Q01DX011 (ip), vehicle: saline): 72 % of control
